Data taken from the supplement of paper PMC11451515.

Test system: P12-Ichikawa
Assay: cell viability relative to DMSO control; higher = less cytotoxic
Conditions: 48 h
In short: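 Leukemia cells (NOMO1 or SEM, 500 cells/well; P12-Ichikawa, 1000 cells/well) were seeded in 5 μl in 1536-well plates after at least four passages of adaptation to each medium. They received library compounds in DMSO by pin dosing, 11 threefold points from 47 μM to 0.79 nM. Luminescence with CellTiter-Glo One was read after 48 h at 37°C. Viability is stated per plate relative to DMSO wells, with cell-free wells as background.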

[1] = HPLM + 10% dialyzed FBS, 0.000781 µM
[2] = HPLM + 10% dialyzed FBS, 0.00234 µM
[3] = HPLM + 10% dialyzed FBS, 0.00702 µM
[4] = HPLM + 10% dialyzed FBS, 0.0211 µM
[5] = HPLM + 10% dialyzed FBS, 0.0632 µM
[6] = HPLM + 10% dialyzed FBS, 0.19 µM
[7] = HPLM + 10% dialyzed FBS, 0.569 µM
[8] = HPLM + 10% dialyzed FBS, 1.71 µM
[9] = HPLM + 10% dialyzed FBS, 5.12 µM
[10] = HPLM + 10% dialyzed FBS, 15.4 µM
[11] = HPLM + 10% dialyzed FBS, 46.1 µM
[12] = RPMI 5 mM glucose + 10% FBS, 0.000781 µM
[13] = RPMI 5 mM glucose + 10% FBS, 0.00234 µM
[14] = RPMI 5 mM glucose + 10% FBS, 0.00702 µM
[15] = RPMI 5 mM glucose + 10% FBS, 0.0211 µM
[16] = RPMI 5 mM glucose + 10% FBS, 0.0632 µM
[17] = RPMI 5 mM glucose + 10% FBS, 0.19 µM
[18] = RPMI 5 mM glucose + 10% FBS, 0.569 µM
[19] = RPMI 5 mM glucose + 10% FBS, 1.71 µM
[20] = RPMI 5 mM glucose + 10% FBS, 5.12 µM
[21] = RPMI 5 mM glucose + 10% FBS, 15.4 µM
[22] = RPMI 5 mM glucose + 10% FBS, 46.1 µM
[23] = RPMI 5 mM glucose + 10% dialyzed FBS, 0.000781 µM
[24] = RPMI 5 mM glucose + 10% dialyzed FBS, 0.00234 µM
[25] = RPMI 5 mM glucose + 10% dialyzed FBS, 0.00702 µM
[26] = RPMI 5 mM glucose + 10% dialyzed FBS, 0.0211 µM
[27] = RPMI 5 mM glucose + 10% dialyzed FBS, 0.0632 µM
[28] = RPMI 5 mM glucose + 10% dialyzed FBS, 0.19 µM
[29] = RPMI 5 mM glucose + 10% dialyzed FBS, 0.569 µM
[30] = RPMI 5 mM glucose + 10% dialyzed FBS, 1.71 µM
[31] = RPMI 5 mM glucose + 10% dialyzed FBS, 5.12 µM
[32] = RPMI 5 mM glucose + 10% dialyzed FBS, 15.4 µM
[33] = RPMI 5 mM glucose + 10% dialyzed FBS, 46.1 µM

SMILES	cell viability [1] [%]	cell viability [2] [%]	cell viability [3] [%]	cell viability [4] [%]	cell viability [5] [%]	cell viability [6] [%]	cell viability [7] [%]	cell viability [8] [%]	cell viability [9] [%]	cell viability [10] [%]	cell viability [11] [%]	cell viability [12] [%]	cell viability [13] [%]	cell viability [14] [%]	cell viability [15] [%]	cell viability [16] [%]	cell viability [17] [%]	cell viability [18] [%]	cell viability [19] [%]	cell viability [20] [%]	cell viability [21] [%]	cell viability [22] [%]	cell viability [23] [%]	cell viability [24] [%]	cell viability [25] [%]	cell viability [26] [%]	cell viability [27] [%]	cell viability [28] [%]	cell viability [29] [%]	cell viability [30] [%]	cell viability [31] [%]	cell viability [32] [%]	cell viability [33] [%]
Oc1cc(-c2nc(-c3ccccc3)[nH]c2-c2ccncc2)ccc1Cl	109	110	110	115	118	117	106	101	92.7	82.9	65.7	122	111	117	122	119	118	111	113	84.7	74.5	45.2											
CCC(C)CCCCC(=O)N[C@@H](CCN)C(=O)NC(C(=O)N[C@H](CCN)C(=O)N[C@@H]1CCNC(=O)C([C@@H](C)O)NC(=O)[C@@H](CCN)NC(=O)[C@@H](CCN)NC(=O)[C@@H](CC(C)C)NC(=O)[C@H](Cc2ccccc2)NC(=O)[C@H](CCN)NC1=O)[C@@H](C)O (stereo partly drawn)	114	118	117	117	122	128	129	124	129	128	126	114	113	115	120	135	135	134	131	132	132	123	111	110	112	115	117	117	120	134	135	123	124
Cc1ccc([C@@H]2O[C@H](CO)[C@@H](O)[C@H](O)[C@H]2O)cc1Cc1ccc(-c2ccc(F)cc2)s1	119	112	119	116	126	127	126	127	127	125	90.3	118	121	135	130	129	132	128	126	131	125	77.7	114	117	118	121	132	132	134	131	118	120	69.9
NC(=O)c1cccc(-c2cc(Nc3ccc(OC(F)(F)F)cc3)ncn2)c1	101	96.4	98.5	101	109	104	105	102	97	99.3	89.5	102	97.7	98	94.2	105	107	105	98.7	91.5	96.1	80.3	99.5	85.7	97.1	91.9	111	104	96.1	98.8	100	95.8	81.5
O=C1NC(=O)/C(=C/c2ccc3nccnc3c2)S1	111	111	117	107	115	122	102	116	103	97.5	99.7	110	112	119	114	115	109	98.7	106	95.2	95.9	91.4	110	111	126	123	114	113	115	102	96.2	104	97.1
Nc1n[nH]c2nnc(-c3c(-c4ccccc4)nn4ccccc34)cc12	104	117	112	120	126	126	120	118	90	18.8	10.6	109	116	123	118	134	119	141	138	95.3	17.7	9.91	113	116	128	121	133	134	136	131	132	53.6	17.9
Nc1ccc(C(=O)Nc2cccc(-c3nc(N4CCOCC4)c4oc5ncccc5c4n3)c2)cn1	125	122	125	121	120	127	120	124	97.3	100	87.8	118	119	115	114	124	112	103	101	81.5	94.7	77.2											
CC1(C)SCCN([S+](=O)([O-])c2ccc(OCC#CCO)cc2)[C@H]1C(=O)NO	103	108	107	98.9	104	103	98.5	90.9	91.2	93.4	95.1	106	95.5	101	98.7	101	95.8	104	87.5	87.9	80.6	89.2	97	97.7	101	103	89.8	88.3	88.1	91.9	86.9	85.4	83.6
CNC[C@H](O)[C@@H](O)[C@H](O)[C@H](O)CO	114	124	122	130	123	125	120	134	128	119	119												109	126	124	125	125	126	122	131	123	119	126
C=CC(=O)Nc1cc2c(Nc3ccc(F)c(Cl)c3)ncnc2cc1C#CC(C)(C)N1CCN(C)CC1	103	108	99.5	97.4	102	106	107	102	58.9	5.08	23.4	95.6	105	101	102	112	106	107	106	65.7	5.56	15.3	97.4	101	96.1	101	101	98.2	96.1	95.7	51	5.48	12.7
C[C@]12CCC3c4ccc(O)cc4CCC3C1CCC2=O (stereo partly drawn)	92	95.3	101	98.9	102	97.9	84.6	94	90.2	73.7	83.9	88.2	95.4	96.8	103	102	100	98.8	95.5	87.4	72.6	83.9	86.9	93.6	86.2	87	87.7	88.4	97.9	80.7	72.8	54.4	66.4
CCCCCNC(=N)N/N=C/c1c[nH]c2ccc(OC)cc12	122	119	121	130	126	139	128	137	121	59.8	20.2																						
CN(C)c1nc(Cc2ccc(NC(=O)c3ccc(C(F)(F)F)cc3)cc2)nc(N(C)C)c1CC(=O)O	106	100	107	104	105	103	99.5	102	103	98.2	90.3	106	109	99.5	105	109	103	103	108	100	103	98.5	95.7	96.7	99.6	105	94.7	96.9	99.3	96.8	95.1	93.8	85.2
O=C(c1cncc(Br)c1)N1CCC(N2CCCC2)CC1	107	97.4	106	103	105	99.9	100	101	100	95.1	89.9	93.6	99.7	100	95.9	98.2	96.7	100	94	103	92.5	90.3	95.9	102	99.6	99.6	95.2	95.1	96.7	100	92	87.1	92
CN1CCc2c(c3ccccc3n2Cc2ccc(C(=O)NO)cc2)C1	84.8	83.9	87.7	89.6	91.5	85	89.6	83.6	87.5	68	66.9	81	77.4	78.6	80.7	84.1	73.1	79.9	83.4	84.2	64.1	56.8	82.2	81.3	83.1	78.4	81.9	78	83.3	77.8	86.5	63.3	68.1
Cc1c(N)nc([C@H](CC(N)=O)NC[C@@H](N)C(N)=O)nc1C(=O)N[C@H](C(=O)N[C@@H](C)[C@H](O)[C@@H](C)C(=O)N[C@@H](C(=O)NCCc1nc(-c2nc(C(=O)NCCC[S+](C)C)cs2)cs1)[C@@H](C)O)C(O[C@H]1O[C@H](CO)[C@H](O)[C@@H](O)[C@H]1O[C@H]1O[C@H](CO)[C@@H](O)[C@H](OC(N)=O)[C@@H]1O)c1c[nH]cn1 (stereo partly drawn)	112	114	108	108	111	120	110	96.6	78	28.3	40.9	103	102	112	114	104	109	105	67.3	51.5	21.4	37	102	103	108	103	105	109	107	91.6	82.1	37.2	44.6
